From patent publication US7514419B2, “Phosphorus-containing thyromimetics” (Metabasis Therapeutics, Inc., priority 2003, dated 2009)

Assays:
[1] = test system: Hypercholesterolemic rats; test: Cholesterol lowering in hypercholesterolemic rats; type: in vivo, rat; conditions: for change in vivo at 0.2 mg/kg/day / change in vivo at 0.5 mg/kg/day: Rattus norvegicus, percentage change from pre-dose cholesterol; for cholesterol lowering: 0.5 mg/kg/d orally; for change in vivo at 0.5 mg/kg/day: delivered p.o. (0.5 mg/kg/d)
[2] = test system: normal rats maintained on a cholesterol-containing diet; test: Continuous infusion study in rats on a cholesterol-containing diet; conditions: continuous infusion 1 mg/kg/day; for cardiovascular parameters (heart rate, LV dP/dt, blood pressure): day 7 or day 14
Procedure: Screening for thyromimetic activity was performed in normal rats maintained on a cholesterol-containing diet.

cholesterol-fed rat = test: Subacute study in cholesterol-fed rats, IP once-a-day for seven days: serum cholesterol, heart weight, heart mGPDH; conditions: cholesterol-fed rats, IP 7 days; Compound 17 at 0.1-1 mg/kg/day
Procedure: The cholesterol-fed rat is an animal model of hypercholesterolemia generated by feeding the animals a diet with high cholesterol content.
Methods: Rats were maintained on a diet containing 1.5% cholesterol and 0.5% cholic acid for 2 weeks prior to initiation of treatment. Serum cholesterol values were assessed and the animals randomized into groups for treatment.

SMILES	change in vivo at 0.5 mg/kg/day ([1]; po) [%]	total cholesterol at day 7 [2]	total cholesterol at day 14 [2]	cardiovascular parameters (heart rate, LV dP/dt, blood pressure) [2]	further results
CC(C)c1cc(Cc2c(Cl)cc(OCP(=O)(O)O)cc2Cl)ccc1O [Compound 7-5, [3,5-dichloro-4-(4′-hydroxy-3′-iso-propylbenzyl)phenoxy] methylphosphonic acid]	–	–	–	–	change in vivo at 0.2 mg/kg/day ([1]; ip, delivered i.p (0.2 mg/kg/d)): -63.3%; change in vivo at 0.2 mg/kg/day ([1]; po, delivered p.o. (0.2 mg/kg/d)): -38%
CC(C)c1cc(Oc2c(Br)cc(CP(=O)(OCOC(=O)C(C)(C)C)OCOC(=O)C(C)(C)C)cc2Br)ccc1O [Compound 12-5, Di-(pivaloyloxymethyl)[3,5-dibromo-4-(4′-hydroxy-3′-iso-propylphenoxy)benzyl] phosphonate]	–	–	–	–	cholesterol lowering [1]: significant lowering of cholesterol
CC(C)c1cc(Oc2c(I)cc(OCP(=O)(OCOC(=O)C(C)(C)C)OCOC(=O)C(C)(C)C)cc2I)ccc1O [Compound 12-7, Di(pivaloyloxymethyl)[3,5-diiodo-4-(4′-hydroxy-3′-iso-propylphenoxy)phenoxy]methylphosphonate]	-39.1	–	–	–	–
CC(C)c1cc(Cc2c(Cl)cc(OC[P@@]3(=O)OCC[C@@H](c4cccc(Cl)c4)O3)cc2Cl)ccc1O [Compound 13-11, Cis (S)-2-[(3,5-dichloro-4-(4′-hydroxy-3′-iso-propylbenzyl)phenoxy)methyl]-4-(3-chlorophenyl)-2-oxo-2λ^5-[1,3,2]-dioxaphosphonane]	-24.8	–	–	–	–
CCOC(=O)[C@H](C)NP(=O)(Cc1cc(Br)c(Oc2ccc(O)c(C(C)C)c2)c(Br)c1)N[C@@H](C)C(=O)OCC [Compound 15-5, di-N-(L-1-ethoxycarbonylethylamino)[3,5-dibromo-4-(4′-hydroxy-3′-iso-propylphenoxy)benzyl]phosphonamide]	–	–	–	–	cholesterol lowering [1]: significant lowering of cholesterol
CCOC(=O)[C@H](C)NP(=O)(COc1cc(Cl)c(Cc2ccc(O)c(C(C)C)c2)c(Cl)c1)N[C@@H](C)C(=O)OCC [Compound 15-7]	-29.1	–	–	–	–
Cc1cc(OCC(=O)O)cc(C)c1Cc1ccc(O)c(C(C)C)c1 [Compound 17, [3,5-dimethyl-4-(4′-hydroxy-3′-iso-propylbenzyl)-phenoxy]acetic acid, reference compound]	–	significant decrease in cholesterol	no significant decrease in cholesterol was observed	–	cardiac hypertrophy (cholesterol-fed rat): Undesirable cardiac hypertrophy was observed
COP(=O)(O)COc1cc(C)c(Cc2ccc(O)c(C(C)C)c2)c(C)c1 [Compound 69, [3,5-dimethyl-4-(4′-hydroxy-3′-iso-propylbenzyl)phenoxy]-methylphosphonic acid monomethyl ester]	–	cholesterol lowering effects	cholesterol lowering effects	no changes in any of the cardiovascular parameters	–
CCOP(=O)(O)COc1cc(C)c(Cc2ccc(O)c(C(C)C)c2)c(C)c1 [Compound 69-1, [3,5-dimethyl-4-(4′-hydroxy-3′-iso-propylbenzyl)phenoxy]methylphosphonic acid monoethyl ester]	–	cholesterol lowering effects	cholesterol lowering effects	no changes in any of the cardiovascular parameters	–
Cc1cc(OCP(C)(=O)O)cc(C)c1Cc1ccc(O)c(C(C)C)c1 [Compound 70, [3,5-dimethyl-4-(4′-hydroxy-3′-iso-propylbenzyl)-phenoxymethyl]methylphosphinic acid]	–	cholesterol lowering effects	cholesterol lowering effects	no changes in any of the cardiovascular parameters	–
